Reference: US7015309B1 (The Wistar Institute of Anatomy and Biology, priority 1999, dated 2006)
Like-named read-outs stand apart in the source and are kept apart here. Non-standard residues stand in square brackets, D forms with d. Residues, ends and D or L forms follow the SMILES beside them. No end group written: not given here. ξ: configuration not given here. Ac6c = NC1(C(=O)O)CCCCC1; ξDap = NCC(N)C(=O)O

Tests used:
[1] = for Degradation product −C1, relative amount / Degradation product −C2, relative amount / Degradation product −C3, relative amount / Degradation product −C6, relative amount / Degradation product −N3, C2, relative amount / Degradation product −N3, relative amount / Degradation product −N5, C2, relative amount / Degradation product −N5, relative amount: 45-minute digestion
Method: (§2) Owing to the fact that the use of diluted serum increases peptide recovery as well as retards the reaction kinetics to a manageable rate, the experiments were conducted using 25% aqueous sera.
(§3) For serum stability studies, 10 μl of an aqueous peptide stock solution containing about 0.8 mg/ml peptide was added to 200 μl 25% aqueous pooled mouse or human serum (Sigma, St. Louis, Mo.), according to the process described in M. F. Powell et al, Pharmacol Res, 10: 1268–1273 (1993). The peptide-serum mixture was thermostated at 37° C. After 0 minutes, 45 minutes, 2 hours and 4 hours, three samples of each peptide were taken and precipitated by the addition of 40 μl 15% aqueous trichloroacetic acid. The samples were stored at 4° C. for 20 minutes and centrifuged. The peptides and some remaining serum proteins were recovered in the supernatant after the trichloroacetic acid precipitation. The supernatants were immediately frozen on dry-ice and 220 μl of each were analyzed on RP-HPLC. A mouse serum and two different batches of the same SIGMA catalog number of human sera (human 1, approximately 1 year old, and human 2, approximately 1 month old) were also used.
(§4) The lyophilized samples were redissolved in 0.1 aqueous TFA and submitted for matrix assisted laser desorption/ionization (MALDI-MS).
(§5) The missing residues are indicated (e.g—C2 means that the C-terminal two residues are cleaved off). […] In Table 4, the relative amounts of the degradation products are estimated based on the MALDI-MS peak heights. 0=not detected; 1=very weak (below 5000), 2=weak (5–10000), 3=medium (10–15000), 4=strong (15000-uncleaved molecular ion at 25–30000), 5=very strong (above uncleaved molecular ion).

[2] = mouse serum, 45-minute digestion, MALDI-MS peak height
Method: as §2, §3, §4, §5

sheep erythrocytes = experiment: Hemolytic activity, release of hemoglobin; details: for Absorbence at 405 nm: one hour, 39° C.; for toxicity to sheep erythrocytes (in words): 256 μM concentration
Method: To determine whether native and modified pyrrhocoricin peptides were toxic to mammalian cells, several peptides from Example 1 above, a positive control, and a negative control were examined for hemolytic activity. Hemolytic activity was assayed with sheep erythrocytes suspended in Alsever's solution (BioWhittaker, Walkersville, Md.), and diluted with Dulbecco's phosphate-buffered saline, pH 7.2. Thirty μL of a 1% suspension of the red blood cells was incubated with agitation at 39° C. with 30 μL of 40 to 256 μM of each of the following peptides dissolved in phosphate buffered saline for one hour and centrifuged at 1000 g for five minutes. Fifty μL of the supernatant was collected and the release of hemoglobin was detected by measuring the ultraviolet absorbences of triplicate samples of the 40 μM or 256 μM test peptides and the control peptides at 405 nm.

Micrococcus luteus = details: read-out: IC50 in μM against Micrococcus luteus; 30° C., 24 hours; for Peptide 22 original assay (a)
Method: (§1) Growth inhibition assays were performed using the peptides of Example 1 and the Gram positive microorganisms Micrococcus luteus and Bacillus megaterium, and the Gram negative microorganisms, Escherichia coli D22, Agrobacterium tumefaciens, and Salmonella typhimurium. Anti-bacterial assays were performed in sterilized 96-well plates (Nunc F96 microtiter plates) with a final volume of 100 μl as described in Bulet (1996), cited above. Briefly, 90 μl of a suspension of a midlogarithmic phase bacterial culture at an initial 600 nm UV absorbence of 0.001 in Luria-Bertani rich nutrient medium was added to 10 μl of serially diluted peptides in sterilized water. The final peptide concentrations ranged between 0.15 and 80 μM. The plates were incubated at 30° C. for 24 hours with gentle shaking, and the growth inhibition was measured by recording the increase of the UV absorbence at 600 nm on an SLT Labinstruments 400 ATC microplate reader. The experiments were conducted over a 7-month period.

[3] = test system: Agrobacterium tumefaciens; details: read-out: IC50 in μM against Agrobacterium tumefaciens; 30° C., 24 hours; for Peptide 22 original assay (a)
Method: as §1

Salmonella typhimurium = details: read-out: IC50 in μM against Salmonella typhimurium; 30° C., 24 hours; for Peptide 22 original assay (a)
Method: as §1

Bacillus megaterium = details: read-out: IC50 in μM against Bacillus megaterium; 30° C., 24 hours; for Peptide 22 original assay (a)
Method: as §1

Escherichia coli D22 = details: read-out: IC50 in μM against Escherichia coli D22; 30° C., 24 hours; for Peptide 22 original assay (a)
Method: as §1

COS cells = experiment: Direct killing of immortalized COS cells; assay type: cell-based
From the text: In another toxicity assay, COS cell survival was studied for pyrrhocoricin and cecropin B (Bachem Biosciences, King of Prussia, Pa.) as the positive control.

in vitro = details: mouse, 25% aqueous pooled mouse serum
Method: as §2, §3, §4, §5

[4] = In vivo toxicity control, uninfected mice; parameters: species or system mice of CD-1 strain; details: 50 mg/kg dose, intravenous
[5] = within a four-hour period; cited from earlier work
[6] = within a four-hour period; cited from earlier work; remark: listed apart in the source
[7] = native glycosylated drosocin; cited from earlier work
bacteria = details: cited from earlier work
[8] = after 8 hours of digestion, all sera studied
Method: as §2, §3, §4

[9] = human 1 serum (approximately 1 year old)
[10] = human 2 serum (approximately 1 month old)

For VDKGSYLPRPTPPRPIYNRN-NH2 [Peptide 1], the “Degradation product −C1, relative amount” value [1, 9] was 3 (3=medium (10–15000)), the “Degradation product −C2, relative amount” value [1, 9] was 4 (4=strong (15000-uncleaved molecular ion at 25–30000)) and the “Degradation product −C3, relative amount” value [1, 9] was 3 (3=medium (10–15000)). The “Degradation product −C6, relative amount” value [1, 9] was 1 (1=very weak (below 5000)), the “Degradation product −N3, C2, relative amount” value [1, 9] was 0 and the “Degradation product −N3, relative amount” value [1, 9] was 0. For the same molecule, the “Degradation product −N5, C2, relative amount” value [1, 9] was 0, the “Degradation product −N5, relative amount” value [1, 9] was 2 (2=weak (5–10000)) and the “Degradation product −C1, relative amount” value [1, 10] was 2 (2=weak (5–10000)). For the same molecule, the “Degradation product −C2, relative amount” value [1, 10] was 2 (2=weak (5–10000)), the “Degradation product −C3, relative amount” value [1, 10] was 0 and the “Degradation product −C6, relative amount” value [1, 10] was 0. For the same molecule, the “Degradation product −N3, C2, relative amount” value [1, 10] was 0, the “Degradation product −N3, relative amount” value [1, 10] was 0 and the “Degradation product −N5, C2, relative amount” value [1, 10] was 0. The “Degradation product −N5, relative amount” value [1, 10] was 0, the “Degradation product −C1, relative amount” value [2] was 2 (2=weak (5–10000)) and the “Degradation product −C2, relative amount” value [2] was 2 (2=weak (5–10000)). The “Degradation product −C3, relative amount” value [2] was 0, the “Degradation product −C6, relative amount” value [2] was 0 and the “Degradation product −N3, C2, relative amount” value [2] was 0. For the same molecule, the “Degradation product −N3, relative amount” value [2] was 0, the “Degradation product −N5, C2, relative amount” value [2] was 0 and the “Degradation product −N5, relative amount” value [2] was 0. For the same molecule, the “Absorbence at 405 nm” value (sheep erythrocytes; 40 μM peptide) was 0.108 ± 0.015, the “toxicity to sheep erythrocytes (in words)” value (sheep erythrocytes) was “completely non-toxic” and the “Absorbence at 405 nm” value (sheep erythrocytes; 256 μM peptide) was 0.0135 ± 0.005. The IC50 (Micrococcus luteus) was 10 µM, the IC50 [3] was < 0.075 µM and the IC50 (Salmonella typhimurium) was 0.6 µM. The IC50 (Bacillus megaterium) was 5 µM, the IC50 (Escherichia coli D22) was < 0.075 µM and the “Cell Count after Treatment” value (COS cells; 5 μM peptide) was 18 ± 4. The “Cell Count after Treatment” value (COS cells; 10 μM peptide) was 12 ± 4, the “Cell Count after Treatment” value (COS cells; 50 μM peptide) was 11 ± 1 and the “effect on cell count and rate of proliferation (in words)” value (COS cells; up to 50 μM/mL concentration) was “did not change”. The remaining at 8 h (in vitro) was 20% and the “toxicity of peptide alone (in words)” value [4] was “Neither Peptides 1 nor 21 [SEQ ID NOS: 6 and 22, respectively] alone showed any toxicity”.
In the case of GKPRPYSPRPTSHPRPIRV [drosocin], the “degradation in diluted mouse serum (in words)” value [5] is listed as “completely degraded”, the “degradation in diluted human serum (in words)” value [6] is listed as “completely degraded” and the “anti-bacterial activity when injected into mice (in words)” value [7] is listed as “no anti-bacterial activity”. The “time needed to kill bacteria in vitro” value (bacteria) was 12 to 24 h.
For `CC[C@H](C)[C@H](NC(=O)[C@@H]1CCCN1C(=O)[C@H](CCCNC(=N)N)NC(=O)[C@@H]1CCCN1C(=O)[C@@H]1CCCN1C(=O)[C@@H](NC(=O)[C@@H]1CCCN1C(=O)[C@H](CCCNC(=N)N)NC(=O)[C@@H]1CCCN1C(=O)[C@H](CC(C)C)NC(=O)[C@H](Cc1ccc(O)cc1)NC(=O)[C@H](CO)NC(=O)CNC(=O)[C@H](CCCCN)NC(=O)[C@H](CC(=O)O)NC(=O)C1(N)CCCCC1)[C@@H](C)O)C(=O)N[C@@H](Cc1ccc(O)cc1)C(=O)N[C@@H](CC(N)=O)C(=O)N[C@@H](CCCNC(=N)N)C(=O)NC(CNC(C)=O)C(N)=O` (stereo partly drawn) [Peptide 21, 1-aminocyclo-hexane carboxylic acid (Chex)-Pyrrhocoricin-β-acetyl-2,3-diamino propionic amide [Dap(Ac)]] (H-[Ac6c]DKGSYLPRPTPPRPIYNR[ξDap](Ac)-NH2), the “Degradation product −C1, relative amount” value [1, 9] was 0, the “Degradation product −C2, relative amount” value [1, 9] was 4 (4=strong (15000-uncleaved molecular ion at 25–30000)) and the “Degradation product −C3, relative amount” value [1, 9] was 2 (2=weak (5–10000)). The “Degradation product −C6, relative amount” value [1, 9] was 0, the “Degradation product −N3, C2, relative amount” value [1, 9] was 0 and the “Degradation product −N3, relative amount” value [1, 9] was 0. For the same molecule, the “Degradation product −N5, C2, relative amount” value [1, 9] was 1 (1=very weak (below 5000)), the “Degradation product −N5, relative amount” value [1, 9] was 2 (2=weak (5–10000)) and the “Degradation product −C1, relative amount” value [1, 10] was 0. For the same molecule, the “Degradation product −C2, relative amount” value [1, 10] was 4 (4=strong (15000-uncleaved molecular ion at 25–30000)), the “Degradation product −C3, relative amount” value [1, 10] was 0 and the “Degradation product −C6, relative amount” value [1, 10] was 0. The “Degradation product −N3, C2, relative amount” value [1, 10] was 0, the “Degradation product −N3, relative amount” value [1, 10] was 0 and the “Degradation product −N5, C2, relative amount” value [1, 10] was 1 (1=very weak (below 5000)). For the same molecule, the “Degradation product −N5, relative amount” value [1, 10] was 2 (2=weak (5–10000)), the “resistance in human serum compared with Peptide 1 (in words)” value ([1]; human serum) was “generally more resistant than Peptide 1” and the “Degradation product −C1, relative amount” value [2] was 0. The “Degradation product −C2, relative amount” value [2] was 2 (2=weak (5–10000)), the “Degradation product −C3, relative amount” value [2] was 0 and the “Degradation product −C6, relative amount” value [2] was 0. For the same molecule, the “Degradation product −N3, C2, relative amount” value [2] was 0, the “Degradation product −N3, relative amount” value [2] was 0 and the “Degradation product −N5, C2, relative amount” value [2] was 0. For the same molecule, the “Degradation product −N5, relative amount” value [2] was 2 (2=weak (5–10000)), the “peptide still present (in words)” value [8] was “traces” and the “Absorbence at 405 nm” value (sheep erythrocytes; 40 μM peptide) was 0.110 ± 0.049. For the same molecule, the “toxicity to sheep erythrocytes (in words)” value (sheep erythrocytes) was “completely non-toxic”, the “Absorbence at 405 nm” value (sheep erythrocytes; 256 μM peptide) was 0.143 ± 0.006 and the remaining at 8 h (in vitro) was 20%. The “toxicity of peptide alone (in words)” value [4] was “Neither Peptides 1 nor 21 [SEQ ID NOS: 6 and 22, respectively] alone showed any toxicity”.
